# Tests used:
# [1] = laser diffraction, dry module, 1 bar
# Experimental: The particles obtained in Example 1 and Comparative Examples 1 and 2 were analyzed for particle size distribution using a particle size analyzer (Mastersizer 2000®, Malvern) based on laser diffraction. The samples were injected at a pressure of 1 bar with a dry module (Scirocco 2000®, Malvern). Each particle was measured for particle size (d0.1), particle size (d0.5) and particle size (d0.9).
# [2] = crystalline form; see U.S. Pat. No. 6,429,210; cited from earlier work
d(0.1) [1],d(0.5) [1],d(0.9) [1],SMILES,density [2]
8.475 μm,85.770 μm,168.393 μm,"COC(=O)[C@H](c1ccccc1Cl)N1CCc2sccc2C1 [Comp. Example 2, clopidogrel bisulfate]",–
1.052 μm,6.055 μm,13.724 μm,"COC(=O)[C@H](c1ccccc1Cl)N1CCc2sccc2C1 [Comp. Example 1, clopidogrel bisulfate]",–
–,–,–,"COC(=O)[C@H](c1ccccc1Cl)N1CCc2sccc2C1 [Form II, clopidogrel bisulfate]",1.462 g/cm^2
–,–,–,"COC(=O)[C@H](c1ccccc1Cl)N1CCc2sccc2C1 [Form I, clopidogrel bisulfate]",1.505 g/cm^2
52.536 μm,74.567 μm,106.074 μm,"COC(=O)[C@H](c1ccccc1Cl)N1CCc2sccc2C1 [Example 1, clopidogrel bisulfate]",–

# From patent publication US20140154330A1, “SPHERICAL PARTICLES OF CLOPIDOGREL BISULFATE, PHARMACEUTICAL COMPOSITION COMPRISING THE SAME, AND PREPARATION METHOD THEREOF” (ASTECH. CO., LTD., priority 2011, published 2014)
